Data on 9 molecules can be found in ChEMBL document CHEMBL4043090 (Bioorg Med Chem, 2017).

In data set [1] the test system is Human immunodeficiency virus 1. Kind of data set: microbe, parasite or virus in culture. The settings on record: Human immunodeficiency virus 1, NL4-3, MAGI-CCR5, 48 h.
Description: Antiviral activity against HIV-1 NL4-3 harboring reverse transcriptase E138A mutant infected in human MAGI-CCR5 cells assessed as reduction in viral infection after 48 hrs by fluorescence based beta-galactosidase reporter gene assay
Another data set has as its system PBMC. Kind of data set: Antiviral activity against HIV-1 Bal infected in human PBMC by MTS assay. The data set is classed as functional, cell-based. A general note: Formazan colour is commonly taken as a measure of viable cells.
The test system of data set [2] is Human immunodeficiency virus 1. Type of data set: functional, cell-based. The settings on record: Human immunodeficiency virus 1, NL4-3, MAGI-CCR5, 48 h.
A short description of data set [3]: Metabolic stability in rat liver microsomes assessed as compound remaining at 4 uM preincubated for 5 mins followed by NADPH addition measured after 60 mins by LC/MS analysis. The settings on record: read-out: Stability. The data set is classed as ADME, microsome.
Data set [4] concerns Human immunodeficiency virus 1. As to the kind of experiment: microbe, parasite or virus in culture. The settings on record: Human immunodeficiency virus 1, NL4-3, MAGI-CCR5, 48 h. This is another data set of the same source.
Description: Antiviral activity against wild type HIV-1 NL4-3 infected in human MAGI-CCR5 cells assessed as reduction in viral infection after 48 hrs by fluorescence based beta-galactosidase reporter gene assay
Data set [5] is described as follows: Therapeutic index, ratio of TC50 for human PBMC to IC50 for HIV-1 Bal infected in human PBMC.
Data set [6] deals with Human immunodeficiency virus 1. As to the kind of experiment: Antiviral activity against HIV-1 NL4-3 harboring reverse transcriptase K103N mutant infected in human MAGI-CCR5 cells assessed as reduction in viral infection after 48 hrs by fluorescence based beta-galactosidase reporter gene assay. Type of data set: functional, cell-based. To be noted: Human immunodeficiency virus 1, NL4-3, MAGI-CCR5, 48 h.

The nature of data set [7]: Therapeutic index, ratio of TC50 for human MAGI-CCR5 cells to IC50 for HIV-1 NL4-3 harboring reverse transcriptase E138A mutant infected in MAGI-CCR5 cells.
A short description of data set [8]: Cytotoxicity against human PBMC assessed as reduction in cell viability by MTS assay. The data set is classed as cell-based. The settings on record: read-out: TC50 (the source's name).
Data set [9] in a line: Therapeutic index, ratio of TC50 for human MAGI-CCR5 cells to IC50 for HIV-1 Bal infected in MAGI-CCR5 cells.
Data set [10] relates to Human immunodeficiency virus 1. As to the kind of experiment: Antiviral activity against HIV-1 Bal infected in human MAGI-CCR5 cells assessed as reduction in viral infection after 48 hrs by fluorescence based beta-galactosidase reporter gene assay. The data set is classed as functional, cell-based. To be noted: for IC50 / IC90: Human immunodeficiency virus 1, Bal, MAGI-CCR5, 48 h.

Data set [11] can be described thus: Therapeutic index, ratio of TC50 for human MAGI-CCR5 cells to IC50 for HIV-1 NL4-3 harboring reverse transcriptase K103N mutant infected in MAGI-CCR5 cells.
Data set [12] can be described thus: Metabolic stability in rat plasma assessed as compound remaining at 100 uM after 1 hr by LC/MS analysis. The data set is classed as ADME, cell-free. The settings on record: read-out: Stability.
The nature of data set [13]: Therapeutic index, ratio of TC50 for human MAGI-CCR5 cells to IC50 for HIV-1 NL4-3 infected in MAGI-CCR5 cells.
Data set [14] has as its system Human immunodeficiency virus 1. The data set is classed as functional, cell-based. To be noted: Human immunodeficiency virus 1, A17, MAGI-CCR5, 48 h.
A short description of data set [15]: Cytotoxicity against human MAGI-CCR5 cells assessed as reduction in cell viability after 48 hrs by MTS assay. The data set is classed as cell-based. The settings on record: read-out: TC50.
A short description of data set [16]: (§1) Inhibition of HIV1 NL4-3 reverse transcriptase assessed as reduction in [3H]dTTP incorporation using poly(rA)/oligo(dT) as template/primer after 1 hr by microbeta scintillation counting analysis. On the set-up: species or system Human immunodeficiency virus 1.
The test system of data set [17] is Human immunodeficiency virus 1. Described as §1.

For `CC1=C(c2nc(-c3ccc(C#N)cc3)cs2)C(c2cc3ccccc3n2C)NC(=O)N1` (configuration not stated), the IC50 (commonly the concentration that inhibits the measured activity by half) is 43.5 µM in data set [1]; 1.1 µM with PBMC; more than 100 µM in [2]; 0.52 to 0.9 µM in data set [4]; 3.84 µM in data set [6]; 0.7 µM in data set [10]. In [14], this molecule came in with an IC50 of more than 100 µM. The IC90 (commonly the point of the concentration-response curve where the effect stands at 90%) is more than 100 µM in [1]; 3.2 µM in the data set with PBMC; more than 100 µM in [2]; 5 to 8.39 µM in [4]; more than 100 µM in data set [6]; 3.7 µM in data set [10]. Further, in [3], the remaining at 1 h, 4 µM stood at 62.9%. Moreover, the TI in [5] was 91; in data set [7], more than 2.3; in data set [9], 143; in [11] it was more than 26.04; in data set [13], “>=111 - 192”. The CC50 in [8] is more than 100 µM. In [10], the Activity entry was “Dose-dependent effect”. The remaining at 1 h, 100 µM in data set [12] came to 95.6%. Also, the CC50 at 48 h in data set [15] was more than 100 µM.
Consider `CC1=C(c2nc(-c3ccc(C#N)cc3)cs2)C(c2ccc(O)cc2)NC(=O)N1` (configuration not stated), for which the IC50 is 0.04 µM in the data set with PBMC, 0.06 µM in data set [4], 0.04 µM in [10] and 28 µM in data set [14]. Further, the IC90 is 0.12 µM in the data set on PBMC, 0.62 µM in data set [4], 0.52 µM in data set [10] and 95 µM in data set [14]. Moreover, in data set [3], the remaining at 1 h, 4 µM worked out at 100%. In addition, the TI in data set [5] is reported as 2500; in data set [9] it was 250; in data set [13] it was 765. The CC50 in [8] was more than 100 µM. For the same molecule, in data set [10], the Activity result was “Dose-dependent effect”. Besides, in data set [12], the remaining at 1 h, 100 µM amounted to 100%. Moreover, the CC50 at 48 h in data set [15] is more than 10 µM.
For the molecule `Cc1cn([C@H]2C[C@H](N=[N+]=[N-])[C@@H](CO)O2)c(=O)[nH]c1=O` [ZIDOVUDINE], the IC90 in data set [1] was more than 1 µM; in [2], 0.1 µM; in [4], 0.35 µM; in data set [6], 0.21 µM. In addition, the IC50 came out at 0.009 µM in [2] and 0.01 µM in data set [6]. For the same molecule, in data set [15], the CC50 at 48 h is more than 1 µM.
In the case of `CC1=C(c2nc(-c3ccc(C#N)cc3)cs2)[C@H](c2cccc(O)c2)NC(=O)N1`, the IC50 in the data set with PBMC is 22 µM; in data set [16], more than 10 µM. Also, the 90% effect level with PBMC (IC90) was put at 77 µM. The TI in data set [5] is more than 4.5.
Turning to `COc1ccc(C2NC(=O)NC(C)=C2c2nc(-c3ccc(C#N)cc3)cs2)cc1` (configuration not stated), the IC50 in the data set with PBMC was determined as 0.12 µM; in data set [4], 0.05 µM; in data set [10], 0.08 µM; in data set [14], 3.4 µM. Moreover, the IC90 in the data set on PBMC worked out at 0.3 µM; in data set [4], 0.62 µM; in data set [10], 0.37 µM; in data set [14], 24 µM. In [3], the remaining at 1 h, 4 µM amounted to 63.1%. The TI in data set [5] was 638; in data set [9], 88; in [13] it was 110. Besides, in data set [8], the CC50 came to 76.6 µM. In addition, in [10], the Activity result is “Dose-dependent effect”. Further, in data set [12], the remaining at 1 h, 100 µM turned out to be 96%. The CC50 at 48 h in data set [15] amounted to 7 µM.
With `Cc1ccnc2c1NC(=O)c1cccnc1N2C1CC1` [NEVIRAPINE], the IC90 in data set [1] was more than 10 µM; in the data set with PBMC, 0.18 to 0.19 µM; in [2], more than 10 µM; in [4], 0.54 to 0.6 µM; in data set [6], 0.35 µM; in data set [10], 0.03 to 0.42 µM. In addition, the IC50 with PBMC is 0.04 to 0.06 µM; in data set [2], more than 10 µM; in [4], 0.04 to 0.07 µM; in data set [6] it was 0.03 µM; in data set [10] it was 0.04 µM; in data set [14] it was more than 10 µM. In data set [10], the Activity result was “Dose-dependent effect”.
Take `COc1ccc(C2NC(=O)NC(C)=C2c2nc(-c3ccc(C#N)cc3)cs2)cn1` (configuration not stated): the IC50 in the data set on PBMC was 0.12 µM; in data set [4], less than 0.32 µM; in data set [10], 0.1 µM; in [14], more than 100 µM. The IC90 with PBMC was 0.43 µM; in data set [4] it was 1.9 µM; in [10], 0.58 µM; in data set [14] it was more than 100 µM. For the same molecule, the remaining at 1 h, 4 µM in data set [3] is 69.4%. Besides, the results for the TI in [5], in data set [9] and in data set [13] were 833, 100 and more than 313, respectively. Moreover, the CC50 in data set [8] was more than 100 µM. In addition, in data set [10], the Activity result was “Dose-dependent effect”. Besides, the remaining at 1 h, 100 µM in [12] was determined as 100%. The CC50 at 48 h in data set [15] is more than 10 µM.
In the data set on PBMC, `CC1=C(c2nc(-c3ccc(C#N)cc3)cs2)[C@@H](c2cccc(O)c2)NC(=O)N1` yielded an IC50 of 0.11 µM and an IC90 of 0.42 µM. Moreover, in data set [5], the TI is listed as more than 909. Further, the CC50 in data set [8] was more than 100 µM. Also, the IC50 in [16] came out at 0.6 µM. Further, the inhibition result in [17] was “Dose-dependent effect”.
With `CC1=C(c2nc(-c3ccc(C#N)cc3)cs2)C(c2ccc(F)nc2)NC(=O)N1` (configuration not stated), the half-inhibitory concentration (IC50) is 0.59 µM with PBMC, 1.1 µM in [4], 1.1 µM in data set [10] and more than 100 µM in data set [14]. Also, the concentration for an effect of 90% (IC90) with PBMC is 2 µM; in [4], 7.6 µM; in data set [10], 5.4 µM; in data set [14], more than 100 µM. In addition, the remaining at 1 h, 4 µM in data set [3] is 49.4%. Also, the TI in data set [5] is listed as 170; in data set [9] it was 91; in [13], more than 91. In addition, in data set [8], the CC50 is more than 100 µM. Also, the Activity result in data set [10] is “Dose-dependent effect”. For the same molecule, the remaining at 1 h, 100 µM in [12] was 100%. In addition, in [15], the CC50 at 48 h was more than 100 µM.
